{"source": "patent EP0708091A1", "about": "“Indoloylguanidine derivatives” (SUMITOMO PHARMACEUTICALS COMPANY, LIMITED, priority 1994, dated 1996)", "note": "Counter-ions that a name gives are not always drawn.", "data": [{"biological_target": "T1, Na⁺/H⁺ exchanger (Rattus norvegicus, UniProt P26431)", "T1 construct": "using the vascular smooth muscle cells isolated from the rat thoracic aorta; endogenous in cells; host or cells: primary vascular smooth muscle cells isolated from rat thoracic aorta", "T1 sequence (P26431 whole entry)": "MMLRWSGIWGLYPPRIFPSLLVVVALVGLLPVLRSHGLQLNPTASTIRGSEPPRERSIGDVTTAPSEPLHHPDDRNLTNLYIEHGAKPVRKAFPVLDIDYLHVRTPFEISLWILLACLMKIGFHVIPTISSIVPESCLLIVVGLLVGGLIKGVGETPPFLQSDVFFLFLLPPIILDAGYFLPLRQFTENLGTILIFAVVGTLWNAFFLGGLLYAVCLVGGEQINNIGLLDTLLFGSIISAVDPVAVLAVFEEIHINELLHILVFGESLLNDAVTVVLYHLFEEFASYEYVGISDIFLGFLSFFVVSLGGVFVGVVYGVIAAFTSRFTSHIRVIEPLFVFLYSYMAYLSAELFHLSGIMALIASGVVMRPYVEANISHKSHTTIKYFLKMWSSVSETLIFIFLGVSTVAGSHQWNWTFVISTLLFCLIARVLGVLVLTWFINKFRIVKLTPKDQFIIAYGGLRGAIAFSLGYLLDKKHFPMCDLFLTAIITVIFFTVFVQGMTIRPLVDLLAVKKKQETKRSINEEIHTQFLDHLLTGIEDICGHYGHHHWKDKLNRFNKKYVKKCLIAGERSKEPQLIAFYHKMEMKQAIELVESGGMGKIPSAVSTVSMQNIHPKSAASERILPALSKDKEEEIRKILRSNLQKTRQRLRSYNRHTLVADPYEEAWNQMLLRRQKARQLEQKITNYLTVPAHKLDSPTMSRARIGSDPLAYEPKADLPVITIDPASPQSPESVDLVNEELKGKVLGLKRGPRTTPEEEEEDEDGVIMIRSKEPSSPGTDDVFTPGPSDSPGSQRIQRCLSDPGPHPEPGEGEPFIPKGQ", "assay": "Inhibition of Na+/H+ exchanger activity in vitro (change in cell viability during acid loading)", "assay_type": "cell-based", "conditions": "minimum effective concentration (MEC), vascular smooth muscle cells isolated from the rat thoracic aorta", "experimental": "Inhibition of Na+/H+ exchanger activity in vitro Method:\nThe experiment was performed by modifying the method of Mungre et al. described in Exp. Cell Res., 193, 236 (1991). That is, inhibition of the Na⁺/H⁺ exchanger activity was evaluated by the change in cell viability during acid loading, using the vascular smooth muscle cells isolated from the rat thoracic aorta.\nThe compounds of the present invention shown in Examples were evaluated by the minimum effective concentration (MEC) for the inhibition of the Na⁺/H⁺ exchanger activity.", "units": {"Inhibition of Na^+/H^+ Exchanger MEC": "µM"}, "values": [{"molecule": "NC(N)=NC(=O)c1nc(Cl)c(N2CCCCCC2)nc1N", "note": "[5-Hexamethylene amiloride, reference compound]", "Inhibition of Na^+/H^+ Exchanger MEC": 0.3}, {"molecule": "CN(C)c1nc(N)c(C(=O)N=C(N)N)nc1Cl", "note": "[Dimethyl amiloride, reference compound]", "Inhibition of Na^+/H^+ Exchanger MEC": 3.0}, {"molecule": "CN(C)CCCOc1ccc(Cl)c2cc(C(=O)NC(=N)N)n(C)c12", "note": "[Example 74, 4-Chloro-7-(3-dimethylaminopropoxy)-l-methyl-2-indoloylguanidine dihydrochloride]", "Inhibition of Na^+/H^+ Exchanger MEC": 0.1}, {"molecule": "N=C(N)NC(=O)c1cc2ccccc2n1CCN1CCCC1", "note": "[Example 144, 1-[2-[(N-Pyrrolidinyl)ethyl]-2-indoloylguanidinedihydrochloride]", "Inhibition of Na^+/H^+ Exchanger MEC": ">10"}, {"molecule": "Cn1c(C(=O)NC(=N)N)cc2c(Cl)cc(OCCN)cc21", "note": "[Example 175, 6-(2-Aminoethoxy)-4-chloro-l-methyl-2-indoloylguanidine dihydrochloride]", "Inhibition of Na^+/H^+ Exchanger MEC": 0.03}]}]}
